Literature values, collected in patent US10017479B2, “Process to make non nucleosidal reverse transcriptase inhibitors (NNRTI) for the treatment of HIV” (priority 2013, dated 2018).

Legend:
[1] = test system: wild type strains of HIV-1

O=C(CSc1nnnn1-c1cccc2ccccc12)Nc1ccccc1[N+](=O)[O-] [compound 3, 2-((1-(naphthalen-1-yl)-1H-tetrazol-5-yl)thio)-N-(2-nitrophenyl)actetamid-e]
activity against the mutated strains of HIV-1 (mutated strains of HIV-1): nanomolar activity
activity against the wild type strains of HIV-1 [1]: nanomolar activity
